pIC50: −log10 of the molar value.
Tested on: 429239-143-T-J1-PDC complex spheroid viability
Test: Anticancer human tumor 429239-143-T-J1-PDC patient-derived small cell lung carcinoma cell line growth inhibition [POLQ]
Settings: for pIC50: curve of first compound; for viability, T/C: stronger effect = lower value
Procedure: Multicellular complex tumor spheroid response to Polymerase (POL) inhibitors (novobiocin, ART-558, RP6685) in combination with a variety of drugs and investigational agents in selected tumor cell lines
The POL inhibitors (novobiocin, ART-558, and RP6685) were evaluated both individually and in combination with standard of care and investigational anticancer small molecules within a complex spheroid model of solid tumors. . Complex spheroids include a stromal component modeled by human endothelial cells (HUVEC) and fibroblasts modeled by human mesenchymal stem cells (MSCs). The concentration ranges selected for each drug and investigational agent were based upon clinically achievable concentrations if the clinical Cmax of the agent was known.
Compounds. The drugs and investigational agents: novobiocin (NSC847541), ART-558 (NSC835418), RP-6685 (NSC848927), peposertib (NSC802822), ceralasertib (NSC780249), elimusertib (NSC800525), camonsertib (NSC841442), AZD-1390 (NSC803789), olaparib (NSC753686), talazoparib (NSC767125), rucaparib (NSC756644), sotorasib (NSC818433), MRTX-1133 (NSC836407), SN-38 (NSC673596), topotecan (NSC609699), epotoside (NSC141540), doxorubicin (NSC123127), gemcitabine (NSC613327), 5-fluorouracil (NSC19893), paclitaxel (NSC125973), vemurafenib (NSC761431), MSA-2 (NSC828583), SN-011 (NSC837082), adavosertib (NSC754352), prexasertib (NSC758257), carboplatin (NSC241240) and oxaliplatin (NSC266046), were obtained from the National Cancer Institute (NCI) Developmental Therapeutics Program Chemical Repository (21). The FDA-approved anticancer drug set is available from the Developmental Therapeutics Program at https://dtp.cancer.gov/organization/dscb/obtaining/. […] The stock solutions were prepared in dimethyl sulfoxide (DMSO, Sigma-Aldrich, St. Louis, MO, cat. D2650), except for the platinum compounds which were prepared in saline (Quality Biological, Gaithersburg, MD, cat. 114-055-101), at 800-fold the tested concentration and stored at -70 degrees C prior to their use. All drugs and investigational agents were tested over a range starting from a high concentration at or near the clinical Cmax and decreasing in half-log increments. If the clinical Cmax for an agent had not been determined, the highest concentration tested was 10 microM, except for SN-38, which was tested at a high concentration of 1 microM.
Cell Culture. All cells were maintained in an incubator at 37 degrees C and 5% CO2 with 95% humidity. The PDC lines were cultured according to standard operating procedures established by the NCI PDMR (https://pdmr.cancer.gov). Table 3 of the manuscript, lists the cell lines along with the number of the three cell types plated to form the mct-spheroids and media for tumor cell growth. After thawing, all PDC lines, except 997537-175-T-J1-PDC and 415267-285-R-J2-PDC, were cultured in Matrigel-coated flasks prepared with a working solution of 1X Ham's F-12 nutrient mix, without supplementation (Thermo Fisher Scientific, cat. 11765054), 100 U/mL penicillin-streptomycin (Thermo Fisher Scientific, cat. 15140122), and 2.5% Matrigel (Corning Inc., Corning, NY, cat. 354248) for the first three passages. The two PDC lines 997537-175-T-J1-PDC and 415267-285-R-J2-PDC were cultured on uncoated flasks. The 857933-349-R-J2-PDC line was cultured in 6C/Colon 1B media containing advanced DMEM/F-12 (Thermo Fisher Scientific, cat. 12634028), 10 mM HEPES (Thermo Fisher Scientific, cat. 15630080), 1X GlutaMAX supplement (Thermo Fisher Scientific, cat. 35050061), 0.1 mg/mL primocin (InvivoGen, San Diego, CA, cat. ant-pm-2), 10% defined fetal bovine serum, heat inactivated (HyClone Laboratories Inc., Logan, UT, cat. SH30070.03HI), 50% L-WRN conditioned media (ATCC, cat. CRL-3276), 1.25 mM N-Acetyl-L-cysteine (Sigma-Aldrich, cat. A9165), 10 mM nicotinamide (Sigma-Aldrich, cat. N0636), 1X B-27 supplement (Thermo Fisher Scientific, cat. 17504044), 1X N-2 supplement (Thermo Fisher Scientific, cat. […]
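Further: luminescence signal used as surrogate measure of viable cells; spheroids exposed to compounds for seven days before readout.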
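Wherever viability, T/C is given: 100% = DMSO vehicle control viability as luminescence relative to vehicle.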

COc1cc(C2c3cc4c(cc3C(OC3OC5COC(C)OC5C(O)C3O)C3COC(=O)C23)OCO4)cc(OC)c1O (configuration not stated) + COC1C(OC(N)=O)C(O)C(Oc2ccc3c(O)c(NC(=O)c4ccc(O)c(CC=C(C)C)c4)c(=O)oc3c2C)OC1(C)C
pIC50 (second compound 0.0316 µM): 6.52 | pIC50 (second compound 0.1 µM): 6.60 | pIC50 (second compound 0.316 µM): 6.38 | pIC50 (second compound 1 µM): 6.49 | pIC50 (second compound 3.16 µM): 6.46 | pIC50 (second compound 10 µM): 6.56 | viability, T/C (second compound 0.0316 µM, first compound 0.0316 µM): 101% | viability, T/C (second compound 0.0316 µM, first compound 0.1 µM): 81.2% | viability, T/C (second compound 0.0316 µM, first compound 0.316 µM): 53% | viability, T/C (second compound 0.0316 µM, first compound 1 µM): 15.8% | viability, T/C (second compound 0.0316 µM, first compound 3.16 µM): 18.2% | viability, T/C (second compound 0.0316 µM, first compound 10 µM): 16.6% | viability, T/C (second compound 0.1 µM, first compound 0.0316 µM): 106% | viability, T/C (second compound 0.1 µM, first compound 0.1 µM): 72% | viability, T/C (second compound 0.1 µM, first compound 0.316 µM): 47.9% | viability, T/C (second compound 0.1 µM, first compound 1 µM): 22% | viability, T/C (second compound 0.1 µM, first compound 3.16 µM): 18.2% | viability, T/C (second compound 0.1 µM, first compound 10 µM): 18.1% | viability, T/C (second compound 0.316 µM, first compound 0.0316 µM): 88.1% | viability, T/C (second compound 0.316 µM, first compound 0.1 µM): 85.3% | viability, T/C (second compound 0.316 µM, first compound 0.316 µM): 59.4% | viability, T/C (second compound 0.316 µM, first compound 1 µM): 20.4% | viability, T/C (second compound 0.316 µM, first compound 3.16 µM): 16.6% | viability, T/C (second compound 0.316 µM, first compound 10 µM): 16.1% | viability, T/C (second compound 1 µM, first compound 0.0316 µM): 90.8% | viability, T/C (second compound 1 µM, first compound 0.1 µM): 75.5% | viability, T/C (second compound 1 µM, first compound 0.316 µM): 54% | viability, T/C (second compound 1 µM, first compound 1 µM): 18.6% | viability, T/C (second compound 1 µM, first compound 3.16 µM): 14% | viability, T/C (second compound 1 µM, first compound 10 µM): 17% | viability, T/C (second compound 3.16 µM, first compound 0.0316 µM): 88.4% | viability, T/C (second compound 3.16 µM, first compound 0.1 µM): 88.9% | viability, T/C (second compound 3.16 µM, first compound 0.316 µM): 52.4% | viability, T/C (second compound 3.16 µM, first compound 1 µM): 20.3% | viability, T/C (second compound 3.16 µM, first compound 3.16 µM): 17% | viability, T/C (second compound 3.16 µM, first compound 10 µM): 13.7% | viability, T/C (second compound 10 µM, first compound 0.0316 µM): 97.4% | viability, T/C (second compound 10 µM, first compound 0.1 µM): 79.1% | viability, T/C (second compound 10 µM, first compound 0.316 µM): 47.7% | viability, T/C (second compound 10 µM, first compound 1 µM): 18.9% | viability, T/C (second compound 10 µM, first compound 3.16 µM): 23% | viability, T/C (second compound 10 µM, first compound 10 µM): 14.2%

Source: PubChem BioAssay AID1963845 (Molecular Pharmacology Branch, DTP, NCI, 2024)
